Where two headings read alike, the source gives them in different places.
Assays:
[1] = test system: chain of tracheal rings of guinea pigs; test: relaxing action on chain of tracheal rings in vitro (bronchospasmolytic action); set-up: species or system guinea pig; conditions: for EC50: Cavia porcellus, Column A, negative logarithm of EC50 in mol/l, 50% of maximum relaxation by (-)isoprenaline, read-out: -lg[EC50] trachea (converted)
[2] = test system: electrically stimulated left atrium of rats; test: positive inotropic action on electrically stimulated left atrium in vitro; set-up: species or system rat; conditions: for EC40: Rattus norvegicus, Column B, negative logarithm of EC40pot in mol/l, 40% increase in contraction force, read-out: -lg[EC40 pot.] left atrium (converted)
Protocol: The positive inotropic action was tested in vitro on the electrically stimulated left atrium of rats (l.a.).
The positive inotropic action of the compounds was tested in vitro on the electrically stimulated left atrium of rats.
Isometric contractions (HSE force sensor K-30; Watanabe recorder, Linear Corder Mark 5) of isolated, left atria from rats (.male., 250-300 g) in an organ bath (10 ml, Tyrode nutrient solution, 31° C., gassing with carbogen, initial tension of the organs 0.25 g) under electrical stimulation (HSE stimulator, 7 V, 3 ms, 2 Hz) were recorded. […] The particular increase in the contraction force is expressed in % of the starting value before administration of the substance. The concentration of the test substance which potentiates the contraction force of the atrium by 40% compared with the starting value [EC40pot. mol/l], expressed by the negative logarithm of the [EC40pot mol/l]: -lg[EC40pot ] serves as a measure of the cardiotonic activity.

[3] = toxicity studies, mouse p.o.; conditions: in vivo, po; Column F; mouse p.o.; 7 days observation; read-out: Approximate LD50
Protocol: The toxicity studies are carried out on female NMRI mice (body weight 23-30 g). The animals (5 animals per dose) receive food and water ad libitum. Various doses of the substances are administered once as a suspension in methocel via a gavage. The period of observation lasts 7 days. The tolerated dose (TD), that is to say the highest dose at which as yet none of the animals die, is determined by observation. The average lethal dose (LD50), that is to say the dose at which 50% of the animals die, is determined from the dose/action curve by means of linear regression.

[4] = test system: histamine-induced bronchospasm; test: inhibition of histamine-induced bronchospasm in anesthetized guinea pigs; format: in vivo, guinea pig
Protocol: A method for simultaneously recording pharmacodynamic and toxic effects on internal sensitive receptors, on the respiration and the cardiovascular system of guinea pigs was used [U. Kilian, E. Muller, E. Ch. […] To characterize the bronchospasm induced by histamine (0.09-0.18 μmol /kg i.v.), the maximum flow rate of the respiratory air during inspiration (Vmaxi) and expiration (Vmaxe) and the breath volume (BVi) were measured. A histamine spasm before administration of the substance was compared with several histamine spasms after administration of the substance. The test substances were administered intravenously (i.v.) and/or intrajejunally (i.j.). 5 to 10 animals were used per measurement, and the arithmetic mean was calculated from the results.

[5] = test system: acetylcholine-induced bronchospasm; test: protective effect against acetylcholine-induced bronchospasm in conscious guinea pigs; format: in vivo, guinea pig; conditions: for Doubling of the latency period / Tripling of the latency period: 100 μmol/kg p.o.; for Tripling of the latency period: figure in parentheses
Protocol: The figure in parentheses indicates the number out of 10 animals in which the latency period more than tripled.
The latency period is to be understood to be the time from the start of acetylcholine-atomization until clear signs of asthma appeared.
The time from the start of atomization to the onset of clear respiratory exertion (in certain circumstances, hypoxic convulsion in the lateral position) is measured, and is denoted the latency period.
The test substance is administered orally by gavage (standard dose 100 μmol/kg, volume 1 ml of 4% strength methocel suspension in 0.9% strength sodium chloride solution/kg). […] Prolongation of the latency period to at least twice its length is regarded as a protective effect.

[6] = test system: guinea pig hearts isolated and perfused by the Langendorff method; test: left-ventricular pressure and heart rate in isolated perfused Langendorff hearts; conditions: for Emax: Cavia porcellus
Text: After the animals have been sacrificed by a blow to the neck and exsanguination through the carotid arteries, the thoracic cavity is opened, and the aorta is exposed and looped up with a thread. A cannula, which is attached by tubing to the apparatus from which the nutrient solution slowly drops, is introduced in the direction of the heart and the heart is, quickly after removal from the thorax, connected to the perfusion apparatus. A balloon probe, connected to a Statham pressure sensor, is advanced through a cut through the left atrium into the left ventricle, and is provided with an initial pressure of 40 mm Hg. […] The nutrient solution flowing freely from the coronary sinus into the right atrium is measured with a flow […]) and, together with the change in the left-ventricular pressure and the heart rate determined from this, is recorded on a Watanabe recorder. The substances are administered in a volume of 0.1 ml of nutrient solution, in the dosage indicated in Tab.

[7] = test system: right ventricle of guinea pigs; test: heart function dP/dtmax, right ventricle of anesthetized guinea pigs; format: in vivo, guinea pig
Protocol: The effect of the substances on the contractility of the heart of guinea pigs is tested on animals (.male., 400 to 1000 g) under urethane anesthesia. The change in pressure in the right ventricle of the heart is measured with a tip catheter introduced through the right jugular vein and the maximum rate of pressure rise (dP/dtmax) is determined from this. The heart rate is derived from the pressure waves. […] The test substances were administered intravenously. 5-7 animals were used for each measurement, and the arithmetic mean was calculated from the results.

## COc1cc(-c2ccc(=O)[nH]n2)ccc1OC(C)C [compound 1]
[1]
  EC50: 1910 nM
[2]
  EC40: 22.4 µM
[3]
  LD50 at 168 h: 270 mg/kg

## COc1cc(-c2ccc(=O)[nH]n2)ccc1OCC(C)C [Serial No. 16, 6-(3-methoxy-4-isobutoxyphenyl)-3[2H]pyridazinone]
[1]
  EC50: 288 nM
[1]; Column C, measure of organ-selective activity
  [EC40 pot.] left atrium / [EC50] trachea: 5.8
[1]; Column D, trachea
  [EC50] theophylline / [EC50] substance: 468
[2]; Column E, left atrium
  [EC40 pot.] theophylline / [EC40 pot.] substance: 251
[2]
  EC40: 1.66 µM
[4]; 20 μmol/kg i.v., 2 min
  inhibition of histamine-induced bronchospasm, TVi: 153%
  inhibition of histamine-induced bronchospasm, Vmaxe: 145%
  inhibition of histamine-induced bronchospasm, Vmaxi: 154%
[4]; 20 μmol/kg i.v., 10 min
  inhibition of histamine-induced bronchospasm, TVi: 66%
  inhibition of histamine-induced bronchospasm, Vmaxe: 63%
  inhibition of histamine-induced bronchospasm, Vmaxi: 73%
[4]; 20 μmol/kg i.v., 20 min
  inhibition of histamine-induced bronchospasm, TVi: 46%
  inhibition of histamine-induced bronchospasm, Vmaxe: 60%
  inhibition of histamine-induced bronchospasm, Vmaxi: 48%
[4]; 20 μmol/kg i.v., 30 min
  inhibition of histamine-induced bronchospasm, TVi: 28%
  inhibition of histamine-induced bronchospasm, Vmaxe: 33%
  inhibition of histamine-induced bronchospasm, Vmaxi: 34%
[4]; 20 μmol/kg i.v., 60 min
  inhibition of histamine-induced bronchospasm, TVi: 13%
  inhibition of histamine-induced bronchospasm, Vmaxe: 16%
  inhibition of histamine-induced bronchospasm, Vmaxi: 15%
[4]; result in words
  inhibition of histamine-induced bronchospasm compared with theophylline: significantly more effective than theophylline
[5]; 30 min
  Doubling of the latency period: 8 N of 10 animals
  Tripling of the latency period: 5 N of 10 animals
[5]; result in words
  protective effect compared with theophylline: greater protective effect

## Cn1c(=O)c2[nH]cnc2n(C)c1=O [Theophylline, theophylline, reference compound]
[2]
  EC40: 417 µM
[4]; 20 μmol/kg i.v., 2 min
  inhibition of histamine-induced bronchospasm, TVi: 45%
  inhibition of histamine-induced bronchospasm, Vmaxe: 51%
  inhibition of histamine-induced bronchospasm, Vmaxi: 49%
[4]; 20 μmol/kg i.v., 10 min
  inhibition of histamine-induced bronchospasm, TVi: 5%
  inhibition of histamine-induced bronchospasm, Vmaxe: 10%
  inhibition of histamine-induced bronchospasm, Vmaxi: 11%
[4]; 20 μmol/kg i.v., 20 min
  inhibition of histamine-induced bronchospasm, TVi: 5%
  inhibition of histamine-induced bronchospasm, Vmaxe: 9%
  inhibition of histamine-induced bronchospasm, Vmaxi: 8%
[4]; 20 μmol/kg i.v., 30 min
  inhibition of histamine-induced bronchospasm, TVi: 10%
  inhibition of histamine-induced bronchospasm, Vmaxe: 13%
  inhibition of histamine-induced bronchospasm, Vmaxi: 8%
[4]; 60 μmol/kg i.j., 2 min
  inhibition of histamine-induced bronchospasm, TVi: 7%
  inhibition of histamine-induced bronchospasm, Vmaxe: 8%
  inhibition of histamine-induced bronchospasm, Vmaxi: 6%
[4]; 60 μmol/kg i.j., 10 min
  inhibition of histamine-induced bronchospasm, TVi: 35%
  inhibition of histamine-induced bronchospasm, Vmaxe: 33%
  inhibition of histamine-induced bronchospasm, Vmaxi: 42%
[4]; 60 μmol/kg i.j., 20 min
  inhibition of histamine-induced bronchospasm, TVi: 41%
  inhibition of histamine-induced bronchospasm, Vmaxe: 41%
  inhibition of histamine-induced bronchospasm, Vmaxi: 46%
[4]; 60 μmol/kg i.j., 30 min
  inhibition of histamine-induced bronchospasm, TVi: 37%
  inhibition of histamine-induced bronchospasm, Vmaxe: 40%
  inhibition of histamine-induced bronchospasm, Vmaxi: 45%
[4]; 60 μmol/kg i.j., 45 min
  inhibition of histamine-induced bronchospasm, TVi: 33%
  inhibition of histamine-induced bronchospasm, Vmaxe: 33%
  inhibition of histamine-induced bronchospasm, Vmaxi: 39%
[4]; 60 μmol/kg i.j., 60 min
  inhibition of histamine-induced bronchospasm, TVi: 37%
  inhibition of histamine-induced bronchospasm, Vmaxe: 32%
  inhibition of histamine-induced bronchospasm, Vmaxi: 39%
[4]; 60 μmol/kg i.v., 2 min
  inhibition of histamine-induced bronchospasm, TVi: 78%
  inhibition of histamine-induced bronchospasm, Vmaxe: 79%
  inhibition of histamine-induced bronchospasm, Vmaxi: 95%
[4]; 60 μmol/kg i.v., 10 min
  inhibition of histamine-induced bronchospasm, TVi: 27%
  inhibition of histamine-induced bronchospasm, Vmaxe: 27%
  inhibition of histamine-induced bronchospasm, Vmaxi: 38%
[4]; 60 μmol/kg i.v., 20 min
  inhibition of histamine-induced bronchospasm, TVi: 16%
  inhibition of histamine-induced bronchospasm, Vmaxe: 15%
  inhibition of histamine-induced bronchospasm, Vmaxi: 19%
[4]; 60 μmol/kg i.v., 30 min
  inhibition of histamine-induced bronchospasm, TVi: 16%
  inhibition of histamine-induced bronchospasm, Vmaxe: 15%
  inhibition of histamine-induced bronchospasm, Vmaxi: 18%
[4]; 60 μmol/kg i.v., 60 min
  inhibition of histamine-induced bronchospasm, TVi: 3%
  inhibition of histamine-induced bronchospasm, Vmaxe: 8%
  inhibition of histamine-induced bronchospasm, Vmaxi: 7%
[5]; 30 min
  Doubling of the latency period: 6 N of 10 animals
  Tripling of the latency period: 4 N of 10 animals
[5]; 45 min after administration
  Doubling of the latency period: 3 N of 10 animals
  Tripling of the latency period: 2 N of 10 animals
[6]; after 3000 nMol, read-out: Emax left-ventricular pressure
  Emax: 16%
[6]; at Emax, 3000 nMol, read-out: Percentage increase in heart rate at Emax
  Emax: 5%
[6]; dose which leads to a 20% increase in left ventricular pressure
  EC20 left-ventricular pressure: is not reached
[7]; 10 μmol/kg i.v., 0-10 min (Maximum)
  Percentage change in dP/dtmax: 59%
[7]; 10 μmol/kg i.v., 10 min
  Percentage change in dP/dtmax: 12%
[7]; 10 μmol/kg i.v., 30 min
  Percentage change in dP/dtmax: 20%
[7]; 30 μmol/kg i.v., 0-10 min (Maximum)
  Percentage change in dP/dtmax: 92%
[7]; 30 μmol/kg i.v., 10 min
  Percentage change in dP/dtmax: 53%
[7]; 30 μmol/kg i.v., 30 min
  Percentage change in dP/dtmax: 67%
[7]; 100 μmol/kg i.v., 0-10 min (Maximum)
  Percentage change in dP/dtmax: 147%
[7]; 100 μmol/kg i.v., 10 min
  Percentage change in dP/dtmax: 135%
[7]; 100 μmol/kg i.v., 30 min
  Percentage change in dP/dtmax: 112%

— patent publication US4707481A, “Pyridazinones, their preparation and use, and bronchospasmolytic medicaments containing pyridazinones” (BYK Gulden Lomberg Chemische Fabrik GmbH, priority 1983, dated 1987)
